The test system of assay [1] is IDH mutant tumors. As to the kind of experiment: Flow cytometry of tumor-infiltrating lymphocytes (TILs). As to conditions: IDH mutant tumor-bearing mice, vs DMSO-treated controls. The class given is in vivo. Here is the method:
Flow cytometry for TILs. IDH WT and mutant tumors were dissociated to form a single cell suspension (SCS). The SCS was then overlaid onto sucrose gradient (Lympholyte-M) and centrifuged at 2400 rpm for 20 minutes. Immune cells at the interphase of the 2 liquids were collected and washed once with PBS. The cells were then stained with appropriate antibodies and acquired on a BD LSR Fortessa flow cytometer. Briefly, cells were washed with PBS and stained with 1 μg antibody for 30 minutes at 4° C. After incubation, the cells were washed three times with FACS buffer (PBS+10% FBS+0.1% Na-azide), resuspended in a final volume of 200 μl of FACS buffer and run through the flow cytometer. Flow cytometry data was analyzed on the Flowjo® v9.1 software. Antibodies used for flow cytometry were as follows: CD45- PE-Cy7, NKp46-FITC, CD11b-APC-Cy7, Gr-1-APC, F4/80-eFluor450, Ly6-c-PerCP-Cy5.5 and CD11c-PE.
(§1) ATRA promotes tumor stasis in IDH mutant tumor-bearing mice. To determine the value of ATRA as a therapeutic modality, its anti-tumor efficacy in vivo was evaluated. Athymic nude mice were implanted with 10^6 IDH mutant or WT primary glioma cells in the flank. 21 days after tumor inoculation (when tumors were about 25 mm^2), 10 mg/kg ATRA was administered every other day for 21 days. Tumors were measured every 3 days. […] Resected tumors from ATRA or DMSO-treated mice were digested to obtain single cell suspensions and assessed for killing by human and mouse NK cells ex vivo.

Assay [2] has as its system IDH MUT (IDH1 R132H) tumors. Put plainly: CCL2 neutralization in ATRA-treated tumor-bearing mice. As to conditions: 10 mg/kg ATRA every alternate day, 1 μg anti-CCL2 neutralizing antibody. The class given is in vivo. Here is the method:
IDH WT and MUT (IDH1 R132H) tumor-bearing mice were treated with 10 mg/kg ATRA every alternate day starting on day 18 after tumor inoculation. Mice were also injected with 1 μg anti-CCL2 neutralizing antibody (or anti isotype antibody) on the 1st day of ATRA treatment.

Assay [3] concerns ATRA-treated IDH mutant tumors. As to the kind of experiment: Ex vivo NK killing of resected tumors. The assay is classed as cell-based, mice. The conditions noted are these: vs DMSO-treated control tumors. Here is the method: as §1
Assay [4] relates to IDH mutant tumors. As to the kind of experiment: NK depletion (anti-NK1.1) experiment in tumor-bearing C57BL6/J nude mice. The class given is in vivo. Here is the method: Mice. […] DMSO-treated mice were used as controls.
Anti-tumor effects of ATRA in vivo is dependent upon NK activity in vivo. Contrary to the delayed pro-differentiation effect of ATRA in vitro (FIG. 13A through 13D), the anti-tumor effects in vivo were more immediate. Thus, it was hypothesized that ATRA exercises alternate pathways to curb tumor growth. […] To further substantiate the role of NKs in anti-tumor effect of ATRA, a NK blocking experiment was performed in vivo. Briefly, IDH mutant or WT tumor-bearing C57BL6/J nude mice were injected with […] anti-NK1.1 (or control isotype) antibody intra-peritoneally on the first day of ATRA treatment. ATRA treatment was started when tumors were about 25 mm^2 in size and administered every other day.

The values that follow come from patent US10821091B2, “Retinoid compositions and methods of increasing immune cell-mediated killing of IDH mutant cancer cells” (UNIVERSITY OF PITTSBURGH—OF THE COMMONWEALTH SYSTEM OF …, priority 2017, dated 2020).

Regarding `CC1=C(/C=C/C(C)=C/C=C/C(C)=C/C(=O)O)C(C)(C)CCC1` [ATRA, all-trans retinoic acid], in the assay with IDH mutant tumors [1], the “MDSCs and monocytes in TILs” value was “lower MDSCs and monocytes”; the “NKs in TILs” value is “higher number”; the “infiltration of immune cells overall (TILs)” value is given as “higher infiltration of immune cells overall”; the “macrophages in TILs” value is reported as “higher number of macrophages”. In addition, the “tumor stasis with CCL2 blockade” value in assay [2] is “CCL2 blockade reversed ATRA-mediated tumor stasis”. In assay [3], the “ex vivo killing by human natural killer cells” value is reported as “more susceptible to killing” and the “ex vivo killing by mouse natural killer cells” value was “more susceptible to killing”. In addition, the “levels of NKs in TILs by flow cytometry” value in the assay with IDH mutant tumors [4] (ATRA-treated mice vs DMSO-treated controls) is recorded as “higher levels of NKs”. The tumor growth result in the assay on IDH mutant tumors [4] (IDH mutant tumor-bearing C57BL6/J nude mice, ATRA every other day, vs DMSO-treated controls) was “significantly slower tumor growth”. Besides, the “tumor growth after depletion of NKs (anti-NK1.1)” value with IDH mutant tumors [4] (IDH mutant tumor-bearing mice treated with ATRA) is “depletion of NKs abrogated the anti-tumor effects of ATRA”.
